pIC50: −log10 of the molar value.
Legend:
Ephrin type-A receptor 1 = Ephrin type-A receptor 1 (Homo sapiens, UniProt P21709); experiment: Inhibition of EphA1 (unknown origin)
Ephrin type-B receptor 1 = Ephrin type-B receptor 1 (Homo sapiens, UniProt P54762); experiment: Inhibition of EphB1 (unknown origin)
[1] = biological target: Tyrosine-protein kinase JAK1 (Homo sapiens, UniProt P23458); experiment: Inhibition of JAK1 (unknown origin)
[2] = biological target: Hepatocyte growth factor receptor (Homo sapiens, UniProt P08581); experiment: Inhibition of MET (unknown origin)
[3] = biological target: Tyrosine-protein kinase ZAP-70 (Homo sapiens, UniProt P43403); experiment: Inhibition of ZAP70 (unknown origin)
[4] = biological target: High affinity nerve growth factor receptor (Homo sapiens, UniProt P04629); experiment: Inhibition of TRKA (unknown origin)
[5] = biological target: Mast/stem cell growth factor receptor Kit (Homo sapiens, UniProt P10721); experiment: Inhibition of C-KIT (unknown origin)
[6] = biological target: Vascular endothelial growth factor receptor 1 (Homo sapiens, UniProt P17948); experiment: Inhibition of FLT1 (unknown origin)
Huh-7 = experiment: Antitumor activity against human HuH7 cells xenografted in nude BALB/c mouse assessed as inhibition of tumor growth at 30 mg/kg bid for 14 days and measured twice per week relative to untreated control; assay type: functional; details: Huh-7, 336 h, read-out: TGI
[7] = Toxicity in male BALB/c mouse assessed as effect on body weight at 50 to 450 mg/kg/day, ig dosed once daily for 4 weeks followed by rehabilitation for another 28 days; assay type: organism-based; details: in vivo, po, 672 h
[8] = Toxicity in male BALB/c mouse assessed as induction of animal death at 450 mg/kg/day, ig dosed once daily for 4 weeks followed by rehabilitation for another 28 days; assay type: organism-based; details: in vivo, po, 672 h
[9] = Toxicity in male BALB/c mouse at 200 to 2000 mg/kg, ig administered as single dose measured after 14 days; assay type: organism-based; details: in vivo, po
[10] = Toxicity in female BALB/c mouse at 200 to 2000 mg/kg, ig administered as single dose measured after 14 days; assay type: organism-based; details: in vivo, po

Mast/stem cell growth factor receptor Kit, sequence (P10721 whole entry): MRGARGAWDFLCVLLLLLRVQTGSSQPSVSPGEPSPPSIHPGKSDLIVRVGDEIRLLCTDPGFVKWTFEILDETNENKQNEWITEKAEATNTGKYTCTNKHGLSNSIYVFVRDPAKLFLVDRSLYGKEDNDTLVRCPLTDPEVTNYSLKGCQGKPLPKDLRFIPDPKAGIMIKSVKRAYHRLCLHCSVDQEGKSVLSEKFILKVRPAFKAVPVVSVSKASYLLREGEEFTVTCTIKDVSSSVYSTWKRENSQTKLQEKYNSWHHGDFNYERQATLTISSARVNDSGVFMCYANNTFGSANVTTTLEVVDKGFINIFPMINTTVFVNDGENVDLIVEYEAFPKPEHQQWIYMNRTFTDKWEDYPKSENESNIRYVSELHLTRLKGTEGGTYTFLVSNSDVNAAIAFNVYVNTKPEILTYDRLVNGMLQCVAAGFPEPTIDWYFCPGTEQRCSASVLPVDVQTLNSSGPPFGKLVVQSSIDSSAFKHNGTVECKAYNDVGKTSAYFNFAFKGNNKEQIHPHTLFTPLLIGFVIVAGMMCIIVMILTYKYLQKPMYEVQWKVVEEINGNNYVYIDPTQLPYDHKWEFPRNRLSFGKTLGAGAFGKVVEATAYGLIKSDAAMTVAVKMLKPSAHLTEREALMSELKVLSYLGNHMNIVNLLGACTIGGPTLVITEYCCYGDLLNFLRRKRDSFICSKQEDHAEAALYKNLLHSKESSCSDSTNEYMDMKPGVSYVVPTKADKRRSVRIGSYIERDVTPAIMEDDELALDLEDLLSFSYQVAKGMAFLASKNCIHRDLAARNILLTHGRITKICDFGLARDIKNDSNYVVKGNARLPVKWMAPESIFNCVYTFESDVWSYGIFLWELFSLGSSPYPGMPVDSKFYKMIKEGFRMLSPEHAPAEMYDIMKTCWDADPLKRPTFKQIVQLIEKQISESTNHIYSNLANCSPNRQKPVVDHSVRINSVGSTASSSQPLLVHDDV
Tyrosine-protein kinase JAK1, sequence (P23458 whole entry): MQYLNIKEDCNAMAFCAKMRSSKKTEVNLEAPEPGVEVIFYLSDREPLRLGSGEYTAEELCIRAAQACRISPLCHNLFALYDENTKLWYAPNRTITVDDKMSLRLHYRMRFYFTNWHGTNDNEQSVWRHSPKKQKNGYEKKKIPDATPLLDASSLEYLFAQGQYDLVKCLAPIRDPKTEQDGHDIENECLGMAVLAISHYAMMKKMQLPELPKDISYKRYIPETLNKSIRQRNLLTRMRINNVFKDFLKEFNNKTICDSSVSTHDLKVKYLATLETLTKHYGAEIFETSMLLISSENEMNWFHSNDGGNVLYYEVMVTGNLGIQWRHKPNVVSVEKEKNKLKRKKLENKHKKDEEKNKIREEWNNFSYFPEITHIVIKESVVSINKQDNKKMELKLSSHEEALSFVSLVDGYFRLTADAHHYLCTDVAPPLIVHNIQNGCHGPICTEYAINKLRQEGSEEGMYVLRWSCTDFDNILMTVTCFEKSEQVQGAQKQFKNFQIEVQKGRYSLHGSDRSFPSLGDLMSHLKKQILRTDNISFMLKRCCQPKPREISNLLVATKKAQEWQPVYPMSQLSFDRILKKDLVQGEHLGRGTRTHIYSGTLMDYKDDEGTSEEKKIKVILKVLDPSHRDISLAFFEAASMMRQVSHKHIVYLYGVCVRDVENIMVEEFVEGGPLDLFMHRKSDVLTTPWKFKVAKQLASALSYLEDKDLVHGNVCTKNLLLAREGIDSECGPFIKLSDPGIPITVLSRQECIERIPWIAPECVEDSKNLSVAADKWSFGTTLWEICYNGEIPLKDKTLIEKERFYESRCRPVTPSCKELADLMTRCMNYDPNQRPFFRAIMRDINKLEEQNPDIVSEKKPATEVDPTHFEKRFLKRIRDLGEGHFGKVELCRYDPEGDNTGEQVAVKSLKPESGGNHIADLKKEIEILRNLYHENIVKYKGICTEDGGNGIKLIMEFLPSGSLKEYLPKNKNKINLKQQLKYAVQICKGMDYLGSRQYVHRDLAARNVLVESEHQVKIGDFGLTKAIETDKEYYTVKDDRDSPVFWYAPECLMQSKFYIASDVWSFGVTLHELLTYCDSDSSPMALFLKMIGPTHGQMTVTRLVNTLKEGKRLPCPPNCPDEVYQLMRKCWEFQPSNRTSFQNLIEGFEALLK
High affinity nerve growth factor receptor, sequence (P04629 whole entry): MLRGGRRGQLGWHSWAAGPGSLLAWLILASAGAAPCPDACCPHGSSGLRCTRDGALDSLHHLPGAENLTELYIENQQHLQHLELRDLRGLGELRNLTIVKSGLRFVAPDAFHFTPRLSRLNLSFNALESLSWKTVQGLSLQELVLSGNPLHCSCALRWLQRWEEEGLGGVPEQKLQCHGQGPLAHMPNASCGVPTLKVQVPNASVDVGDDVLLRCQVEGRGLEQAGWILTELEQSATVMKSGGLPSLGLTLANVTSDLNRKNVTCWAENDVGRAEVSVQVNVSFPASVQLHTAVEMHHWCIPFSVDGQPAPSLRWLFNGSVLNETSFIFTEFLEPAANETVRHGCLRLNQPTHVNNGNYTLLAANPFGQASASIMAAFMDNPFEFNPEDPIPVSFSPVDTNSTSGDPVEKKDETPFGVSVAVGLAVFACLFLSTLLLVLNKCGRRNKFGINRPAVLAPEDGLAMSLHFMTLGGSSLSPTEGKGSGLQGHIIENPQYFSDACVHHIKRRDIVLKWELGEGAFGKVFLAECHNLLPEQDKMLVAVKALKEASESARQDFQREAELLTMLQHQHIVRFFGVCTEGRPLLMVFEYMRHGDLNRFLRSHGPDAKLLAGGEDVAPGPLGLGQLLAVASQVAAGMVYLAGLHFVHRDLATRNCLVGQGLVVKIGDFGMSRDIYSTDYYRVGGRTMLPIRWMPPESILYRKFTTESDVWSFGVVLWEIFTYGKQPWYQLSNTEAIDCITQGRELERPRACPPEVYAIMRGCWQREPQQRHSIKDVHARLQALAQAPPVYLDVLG
Ephrin type-A receptor 1, sequence (P21709 whole entry): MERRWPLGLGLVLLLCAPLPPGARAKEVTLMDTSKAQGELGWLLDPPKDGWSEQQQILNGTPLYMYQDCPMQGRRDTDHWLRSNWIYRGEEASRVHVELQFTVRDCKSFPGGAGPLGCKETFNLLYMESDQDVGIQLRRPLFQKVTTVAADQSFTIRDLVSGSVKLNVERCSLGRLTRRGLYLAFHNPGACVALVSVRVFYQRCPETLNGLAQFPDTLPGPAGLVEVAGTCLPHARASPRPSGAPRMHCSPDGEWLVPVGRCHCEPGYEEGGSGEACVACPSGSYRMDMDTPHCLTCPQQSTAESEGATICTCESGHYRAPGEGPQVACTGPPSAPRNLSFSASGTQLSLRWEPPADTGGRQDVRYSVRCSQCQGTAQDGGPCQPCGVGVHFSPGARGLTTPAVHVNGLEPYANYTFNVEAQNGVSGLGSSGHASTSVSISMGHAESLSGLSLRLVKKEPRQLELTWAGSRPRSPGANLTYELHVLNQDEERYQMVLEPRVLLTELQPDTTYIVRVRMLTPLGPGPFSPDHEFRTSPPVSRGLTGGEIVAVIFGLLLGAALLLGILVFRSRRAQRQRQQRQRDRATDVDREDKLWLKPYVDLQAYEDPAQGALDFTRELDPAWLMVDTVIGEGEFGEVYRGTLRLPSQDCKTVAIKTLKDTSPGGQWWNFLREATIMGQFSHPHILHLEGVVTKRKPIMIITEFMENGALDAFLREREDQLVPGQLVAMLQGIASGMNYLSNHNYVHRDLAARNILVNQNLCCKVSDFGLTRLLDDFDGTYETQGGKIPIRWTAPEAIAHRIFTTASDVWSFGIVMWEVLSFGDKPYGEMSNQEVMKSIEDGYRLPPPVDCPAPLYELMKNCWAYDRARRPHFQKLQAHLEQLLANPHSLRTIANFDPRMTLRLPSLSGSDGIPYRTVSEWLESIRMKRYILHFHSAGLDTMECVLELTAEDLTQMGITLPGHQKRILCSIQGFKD
Tyrosine-protein kinase ZAP-70, sequence (P43403 whole entry): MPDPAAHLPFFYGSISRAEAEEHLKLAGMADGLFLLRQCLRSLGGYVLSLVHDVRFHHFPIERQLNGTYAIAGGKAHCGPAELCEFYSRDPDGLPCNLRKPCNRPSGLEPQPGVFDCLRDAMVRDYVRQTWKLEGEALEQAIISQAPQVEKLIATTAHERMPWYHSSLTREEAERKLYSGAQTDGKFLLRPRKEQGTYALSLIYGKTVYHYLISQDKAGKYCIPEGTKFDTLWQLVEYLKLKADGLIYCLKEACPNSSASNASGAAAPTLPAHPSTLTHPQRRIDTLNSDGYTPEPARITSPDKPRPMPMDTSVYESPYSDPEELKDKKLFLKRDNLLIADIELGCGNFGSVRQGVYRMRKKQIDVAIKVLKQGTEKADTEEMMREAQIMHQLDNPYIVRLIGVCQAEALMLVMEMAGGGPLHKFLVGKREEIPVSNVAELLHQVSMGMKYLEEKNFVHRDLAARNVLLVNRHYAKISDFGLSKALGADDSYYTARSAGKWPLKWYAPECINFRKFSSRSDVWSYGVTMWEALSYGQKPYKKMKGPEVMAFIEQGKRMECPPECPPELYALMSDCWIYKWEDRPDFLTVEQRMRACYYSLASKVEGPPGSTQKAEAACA

COC[C@@H](C)Nc1cc(NC(=O)N2CCCc3cc(CN4CCCCOC4=O)c(C=O)nc32)ncc1C#N
pIC50 (Ephrin type-A receptor 1): < 5.00
pIC50 (Ephrin type-B receptor 1): < 5.00
pIC50 [1]: < 5.00
pIC50 [2]: < 5.00
pIC50 [3]: < 5.00
pIC50 [4]: < 5.00
pIC50 [5]: < 5.00
pIC50 [6]: < 5.00
inhibition in vivo at 30 mg/kg (Huh-7): 62.7%
Activity [7]: Non-Toxic
Activity [8]: Non-Toxic
NOAEL at 336 h [9]: 2000 mg/kg/day
NOAEL at 336 h [10]: 2000 mg/kg/day

From ChEMBL document CHEMBL4339212, “Novel 7-formyl-naphthyridyl-ureas derivatives as potential selective FGFR4 inhibitors: Design, synthesis, and biological activity studies” (Bioorg Med Chem, 2019)
